# Measured values taken from patent publication US9005577B2, “Substrate based PET imaging agents” (Siemens Medical Solutions USA, Inc., priority 2008, dated 2015).
# Square brackets hold non-standard residues; d marks the D form. Peptide text beside a SMILES is read from it. * marks the point of attachment. PEG4 = NCCOCCOCCOCCOCCC(=O)O; X1 = O=C(Cn1cc(CCCF)nn1)*
# Assays:
# Type in all cases: cell-based, human
# H2122 = experiment: Cold [19F] standard compound uptake in cells treated with apoptotic inducer, LC/MS (H2122); conditions: cold standard compound 10 μM, 2 h, 1 mM 5FU for 2 days, % uptake normalized per mg protein extract
# Protocol: (§1) When cells grown in 6-well plates reached 80% confluence, the growth medium was replaced with 2 ml of fresh medium containing 1 mM of 5FU. After two days of apoptotic induction, the standard compound was added into the cultures (control and 5FU treated) at a final concentration of 10 μM. The cells were cultured in the incubator for 2 hours for compound uptake. Then, (in the case of experiments involving the use of caspase-3 inhibitors as blockers, the inhibitor was added to the cells 1 hour early before the addition of standard compound). 100 μl of cell culture medium for each sample was collected, and the cells were harvested by centrifugation. Cell pellets were washed twice with 1×PBS, and lysed in 100 μl of lysis buffer. Both cell lysate and medium were boiled for 5 minutes to denature proteins, cooled down on ice, then 100 μl of chloroform/methanol (50/50 ratio) were added. After vortexing and extraction, the samples were centrifuged in Eppendorf tubes in a micro centrifuge at 13000 rpm for 15 minutes at 4 C. 50 μl of the supernatant was transferred to an HPLC vial. The amounts of compound (or product of caspase-3 cleavage) inside the cells and in the medium were measured by LC/MS. The % uptake=total amount of cell uptake/total amount of compound X 100%. The % uptake was normalized by the amount of cellular protein extract (mg): % Uptake/mg protein extracts.
# U87 [1] = experiment: Cold [19F] standard compound uptake in cells treated with apoptotic inducer, LC/MS (U87); conditions: cold standard compound 10 μM, 2 h, 1 mM 5FU for 2 days, % uptake normalized per mg protein extract
# Protocol: as §1
# HT29 [2] = experiment: Cold [19F] standard compound uptake in cells treated with apoptotic inducer, LC/MS (HT29); conditions: cold standard compound 10 μM, 2 h, 1 mM 5FU for 2 days, % uptake normalized per mg protein extract
# Protocol: as §1
# A498 [3] = experiment: Cold [19F] standard compound uptake in cells treated with apoptotic inducer, LC/MS (A498); conditions: cold standard compound 10 μM, 2 h, 1 mM 5FU for 2 days, % uptake normalized per mg protein extract
# Protocol: as §1
# A498 [4] = experiment: [18F]-tracer compound uptake in cancer cell lines treated with apoptotic inducer 5FU (A498); conditions: [18F]-tracer 10 μCi/well, 2 h incubation, 1 mM 5FU for 2 days; % uptake normalized per mg protein extract
# Protocol: (§2) Cells grown overnight and having reached about 80% confluence in 6-well plates were exposed to 1 mM of apoptotic inducer 5FU for 2 days in a cell culture incubator. The [18F]-labeled tracer was added into each well (triplicates for control and 5FU treated) at 10 μCi/well. (in case of experiments involving the use of caspase-3 inhibitors as blockers, the inhibitor was added to the cells 1 hour before the addition of the [18F]-tracer). The cells were then incubated for two hours. Cells were collected by scrape and centrifugation. Cell pellets were washed twice with 1λ PBS. The amount of tracer inside the cells and in the medium was measured by y-counter. The % Uptake=total CPM inside cells/total tracer CPM×100%. The % Uptake was normalized by the amount of cellular protein extract (mg): % uptake/mg protein extracts.
# HT29 [5] = experiment: [18F]-tracer compound uptake in cancer cell lines treated with apoptotic inducer 5FU (HT29); conditions: [18F]-tracer 10 μCi/well, 2 h incubation, 1 mM 5FU for 2 days; % uptake normalized per mg protein extract
# Protocol: as §2
# U87 [6] = experiment: [18F]-tracer compound uptake in cancer cell lines treated with apoptotic inducer 5FU (U87); conditions: [18F]-tracer 10 μCi/well, 2 h incubation, 1 mM 5FU for 2 days; % uptake normalized per mg protein extract
# Protocol: as §2
SMILES,percent uptake H2122 (H2122) [%],percent uptake U87 (U87 [1]) [%],percent uptake HT29 (HT29 [2]) [%],percent uptake A498 (A498 [3]) [%],percent uptake A498 (A498 [4]) [%],percent uptake HT29 (HT29 [5]) [%],percent uptake U87 (U87 [6]) [%]
CC(C)[C@H](NC(=O)[C@H](CCC(=O)O)NC(=O)[C@H](CC(=O)O)NC(=O)Cn1cc(CCCF)nn1)C(=O)N[C@@H](CC(=O)O)C(=O)NCC(=O)N[C@@H](CCCCN)C(=O)N[C@@H](CCCCN)C(=O)N[C@@H](CCCCN)C(=O)N[C@@H](CCCCN)C(N)=O [Compound 27] (X1-DEVDGKKKK-NH2),2.0,2.5,1.7,4.5,,,
CC(C)[C@H](NC(=O)[C@H](CCC(=O)O)NC(=O)[C@H](CC(=O)O)NC(=O)Cn1cc(CCCF)nn1)C(=O)N[C@@H](CC(=O)O)C(=O)N[C@@H](C)C(=O)NCCOCCOCCOCCOCCC(=O)O [Compound 21] (X1-DEVDA[PEG4]-OH),1.3,2.0,1.1,2.1,,,
CC(C)[C@H](NC(=O)[C@H](CCC(=O)O)NC(=O)[C@H](CC(=O)O)NC(=O)C1OC(CNC(=O)Cn2cc(CCC[18F])nn2)C(O)C(O)C1O)C(=O)N[C@@H](CC(=O)O)C(=O)NCC(N)=O (stereo partly drawn) [^18F-49],,,,,1.5,,
CC(C)[C@H](NC(=O)[C@H](CCC(=O)O)NC(=O)[C@H](CC(=O)O)NC(=O)C1OC(CNC(=O)Cn2cc(CCC[18F])nn2)C(O)C(O)C1O)C(=O)N[C@@H](CC(=O)O)C(=O)N[C@@H](C)C(=O)NCCOCCOCCOCCOCCC(=O)O (stereo partly drawn) [^18F-56],,,,,2.1,1.9,2.1
CC(C)[C@H](NC(=O)[C@H](CCC(=O)O)NC(=O)[C@H](CC(=O)O)NC(=O)Cn1cc(CCC[18F])nn1)C(=O)N[C@@H](CC(=O)O)C(=O)N[C@@H](C)C(=O)NCCOCCOCCOCCOCCC(=O)O [^18F-21],,,,,1.8,2.1,2.1
